Values joined by “and” are separate entries in the source; they are usually repeats but may differ in a detail not shown here. Equal values may be shown once. Where a name gives a salt, the structure may show the parent alone. Read-outs that look alike come from different tables or passages of the source.
What was measured:
SARS-CoV-2 [1] = format: cell-based
SARS-CoV-2 [2] = assay: microbe, parasite or virus in culture; format: cell-based; conditions: for Emax: Severe acute respiratory syndrome coronavirus 2, HeLa-ACE2, 24 h, curve-fit effect at infinite concentration, average, read-out: HeLa-ACE2 CoV-2 Sinf Average; for EC50: Severe acute respiratory syndrome coronavirus 2, HeLa-ACE2, read-out: HeLa-ACE2 CoV-2 EC50 GeoMean
Calu-3 cells [3] = assay: cells; conditions: Homo sapiens; for Emax: Calu-3, 48 h
SARS-CoV-2 [4] = assay: microbe, parasite or virus in culture; format: cell-based; conditions: for Emax: Severe acute respiratory syndrome coronavirus 2, Calu-3, 48 h; for EC50: read-out: Calu-3 CoV-2 EC50 GeoMean
in vitro = conditions: human
[5] = Uninfected HeLa-ACE2 24 h live/dead cytotoxicity counter screen; format: cell-based, human; conditions: human, uninfected HeLa-ACE2 cells
HeLa-ACE2 cells [6] = assay: as above; format: cell-based, human; conditions: for HeLa-ACE2 uninfected cytotoxicity Sinf Average: curve-fit effect at infinite concentration; for HeLa-ACE2 uninfected cytotoxicity Sinf Average (%): Sinf average of the curves
Calu-3 cells [7] = assay: Uninfected Calu-3 48 h Cell-Titer Glo cytotoxicity counter screen; conditions: for Calu-3 uninfected cytotoxicity Sinf Average: curve-fit effect at infinite concentration; for Calu-3 uninfected cytotoxicity Sinf Average (%): Sinf average of the curves
HeLa-ACE2 cells [8] = assay: cells; conditions: Homo sapiens; for Emax: HeLa-ACE2, 24 h, read-out: HeLa-ACE2 cell count Sinf Average
[9] = Uninfected Calu-3 48 h Cell-Titer Glo cytotoxicity counter screen; conditions: human, uninfected Calu-3 cells, Calu-3 uninfected cytotoxicity CC50 GeoMean, unrounded geometric mean
Calu-3 cells [10] = tested on: Calu-3 cells
[11] = read-out: Calu-3 cell count Sinf Average
[12] = Calu-3, read-out: Calu-3 cell count EC50 GeoMean, unrounded geometric mean
[13] = curve-fit effect at infinite concentration, average, read-out: Calu-3 CoV-2 Sinf Average
[14] = Severe acute respiratory syndrome coronavirus 2, Calu-3, unrounded geometric mean
[15] = Calu-3 uninfected cytotoxicity CC50 GeoMean, unrounded geometric mean
[16] = uninfected cells, Fig. 2b group, read-out: HeLa-ACE2 CC50
[17] = unrounded geometric mean, read-out: HeLa-ACE2 uninfected cytotoxicity CC50 GeoMean
[18] = HeLa-ACE2, read-out: HeLa-ACE2 cell count EC50 GeoMean, unrounded geometric mean
[19] = read-out: Calu-3 cell count Sinf Average (%)
[20] = Calu-3, read-out: Calu-3 cell count EC50 GeoMean (µM), geometric mean of replicates
[21] = Sinf average of the curves, read-out: Calu-3 CoV-2 Sinf Average (%)
[22] = Severe acute respiratory syndrome coronavirus 2, Calu-3, geometric mean of replicates
[23] = Calu-3 uninfected cytotoxicity CC50 GeoMean (µM), geometric mean of replicates
[24] = geometric mean of replicates, read-out: HeLa-ACE2 uninfected cytotoxicity CC50 GeoMean
[25] = HeLa-ACE2, read-out: HeLa-ACE2 cell count EC50 GeoMean (µM), geometric mean of replicates

| Compound | Emax (SARS-CoV-2 [2]) [%] | EC50 (SARS-CoV-2 [2]; unrounded geometric mean) [nM] | Emax (Calu-3 cells [3]; [11]) [%] | EC50 (Calu-3 cells [3]; [12]) [µM] | Emax (SARS-CoV-2 [4]; [13]) [%] | EC50 (SARS-CoV-2 [4]; [14]) [nM] | CC50 (in vitro; [15]) [µM] | CC50 at 24 h [5, 16] [nM] | CC50 at 24 h [5, 17] [nM] | HeLa-ACE2 uninfected cytotoxicity Sinf Average (HeLa-ACE2 cells [6]) [%] | Calu-3 uninfected cytotoxicity Sinf Average (Calu-3 cells [7]) [%] | Emax (HeLa-ACE2 cells [8]) [%] | EC50 (HeLa-ACE2 cells [8]; [18]) [µM] | also measured |
| --- | --- | --- | --- | --- | --- | --- | --- | --- | --- | --- | --- | --- | --- | --- |
| Nc1nc(N)c2nc(CCc3ccc(C(=O)N[C@@H](CCC(=O)O)C(=O)O)cc3)cnc2n1 [10-deazaaminopterin] |  |  |  |  |  |  |  |  |  |  |  |  |  | interaction with remdesivir (SARS-CoV-2 [1]; ZIP model): synergistic (synergistic effect: δ >10); dose-response point, normalized infected cells (SARS-CoV-2 [1]; alone, Concentration [uM] -9.01818): 8.312 and 15.4845 and 9.998; maximal efficacy (SARS-CoV-2 [1]; compound alone): 40%; maximal efficacy (SARS-CoV-2 [1]; with EC2 of remdesivir): ~65%; maximal efficacy (SARS-CoV-2 [1]; with EC24 of remdesivir): > 80% |
| COC(=O)[C@@]12OC[C@]34[C@H]([C@@H](O)[C@@H]1O)[C@@]1(C)CC(=O)C(O)=C(C)[C@@H]1C[C@H]3OC(=O)[C@H](OC(=O)/C=C(\C)C(C)C)[C@@H]24 [Bruceantin] | 98 | 5.78 | -100 | > 6.92 | 99 | 19.4 | 0.973 | ≤ 3000 | < 117 | -100 | -53 | 99 | 0.0968 |  |
| N6-isopentenyladenosine [Riboprine] |  |  |  |  |  |  |  |  |  |  |  |  |  | interaction with remdesivir (SARS-CoV-2 [1]): synergistic (key: additive: Additive effect: -10< δ <10; synergistic effect: δ >10; antagonistic eff ect: δ <10); maximal efficacy (SARS-CoV-2 [1]): 100% |
| CCCCCCCCCCCCCC(=O)O[C@@H]1[C@@H](C)[C@@]2(O)[C@@H](C=C(CO)C[C@]3(O)C(=O)C(C)=C[C@@H]23)[C@@H]2C(C)(C)[C@]12OC(C)=O [Phorbol 12-myristate 13-acetate] | 40 |  | 100 | > 9.98 | 59 | 16.2 | 22.5 | ≤ 3000 | > 201 | -58 | -100 |  | > 9.59 |  |
| CC(C)(C)c1ccc(CSc2cnn(C(C)(C)C)c(=O)c2Cl)cc1 [Pyridaben] |  |  |  |  |  |  |  |  |  |  |  |  |  | EC50 (SARS-CoV-2 [2]; geometric mean of replicates): > 9590 nM; Emax (Calu-3 cells [3]; [19]): 47%; EC50 (Calu-3 cells [3]; [20]): 0.345 µM; Emax (SARS-CoV-2 [4]; [21]): 93%; EC50 (SARS-CoV-2 [4]; [22]): 205 nM; CC50 (in vitro; [23]): > 8.99 µM; CC50 at 24 h [5, 24]: > 39800 nM; Calu-3 uninfected cytotoxicity Sinf Average (%) (Calu-3 cells [7]): -94%; EC50 (HeLa-ACE2 cells [8]; [25]): > 9.59 µM |
| C=C(C)[C@]12C[C@@H](C)[C@@]34O[C@](Cc5ccccc5)(O[C@@H]1[C@@H]3C=C(COC(=O)Cc1ccc(O)c(OC)c1)C[C@]1(O)C(=O)C(C)=C[C@@H]41)O2 [Resiniferatoxin] | 75 | > 1300 | 75 | > 2.87 | 80 | 903 | 17.3 |  | 7170 | -100 | -100 | 100 | > 8.34 |  |
| CC[C@H]1CN2CCc3cc(OC)c(OC)cc3[C@@H]2C[C@@H]1C[C@H]1NCCc2cc(O)c(OC)cc21 [Cephaeline] | 99 | 16.8 | 100 | > 6.92 | 96 | 142 | > 4.96 | ≤ 3000 | 212 | -100 | -68 | 107 | 0.309 |  |
| CO[C@H]1C[C@H](O[C@H]2CC[C@]3(C=O)[C@H]4CC[C@]5(C)[C@@H](C6=CC(=O)OC6)CC[C@]5(O)[C@@H]4CC[C@]3(O)C2)O[C@H](C)[C@H]1O [Cymarine] | 93 | 237 | -100 | > 9.98 | 87 | 135 | > 5.87 | ≤ 3000 | 287 | -95 | -40 | 100 | 0.311 |  |
| CC(=O)O[C@H]1C[C@H](O[C@H]2[C@@H](O)C[C@H](O[C@H]3[C@@H](O)C[C@H](O[C@H]4CC[C@@]5(C)[C@H](CC[C@@H]6[C@@H]5C[C@@H](O)[C@]5(C)[C@@H](C7=CC(=O)OC7)CC[C@]65O)C4)O[C@@H]3C)O[C@@H]2C)O[C@H](C)[C@H]1O[C@@H]1O[C@H](CO)[C@@H](O)[C@H](O)[C@H]1O [Lanatoside C] | 97 | 206 | -33 | > 9.98 | 86 | 194 | > 6.21 | ≤ 3000 | 1350 | -101 | -28 | 96 | 0.379 |  |
| COCc1c(C(C)C)nc(C(C)C)c(/C=C/[C@@H](O)C[C@@H](O)CC(=O)O)c1-c1ccc(F)cc1 [Cerivastatin sodium] |  | > 9590 | 89 | 0.936 | 63 | 348 |  | ≤ 3000 | 308 | -74 | -100 | 100 | > 9.59 | CC50 at 48 h [9]: > 29900 nM |
| O=C(Nc1ccc(Cl)c(S(=O)(=O)N2CCNCC2)c1O)Nc1cccc(F)c1Cl [Elubrixin tosylate] |  |  |  |  |  |  |  |  |  |  |  |  |  | EC50 (SARS-CoV-2 [2]; geometric mean of replicates): > 9590 nM; Emax (Calu-3 cells [3]; [19]): 67%; EC50 (Calu-3 cells [3]; [20]): > 9.98 µM; Emax (SARS-CoV-2 [4]; [21]): 100%; EC50 (SARS-CoV-2 [4]; [22]): 6910 nM; CC50 at 48 h (in vitro; [23]): > 29.6 µM; CC50 at 24 h [5, 24]: > 39800 nM; HeLa-ACE2 uninfected cytotoxicity Sinf Average (%) (HeLa-ACE2 cells [6]): -100%; Calu-3 uninfected cytotoxicity Sinf Average (%) (Calu-3 cells [7]): -100%; EC50 (HeLa-ACE2 cells [8]; [25]): > 9.59 µM |
| N#Cc1cccc(C(C(=O)NCC(c2ccccc2)c2ccccc2)N(CCc2c[nH]cn2)C(=O)c2ccccc2C(=O)c2ccccc2)c1 (stereo not drawn) [GENZ-29155] |  |  |  |  |  |  |  |  |  |  |  |  |  | EC50 (SARS-CoV-2 [2]; geometric mean of replicates): > 9590 nM; HeLa-ACE2 CoV-2 Sinf Average (%) (SARS-CoV-2 [2]; Sinf average of the curves): -67%; EC50 (Calu-3 cells [3]; [20]): > 9.98 µM; Emax (SARS-CoV-2 [4]; [21]): 79%; EC50 (SARS-CoV-2 [4]; [22]): > 4660 nM; CC50 at 48 h (in vitro; Calu-3 uninfected cytotoxicity CC50 GeoMean (µM)): > 29.9 µM; uninfected Calu-3 CC50 [μM] (Calu-3 cells [10]): > 29.867 ×÷ 1 (n=3) μM; Calu-3 uninfected cytotoxicity Sinf Average (%) (Calu-3 cells [10]; human, 48 h): 0%; CC50 at 24 h [5, 24]: > 38500 nM; HeLa-ACE2 uninfected cytotoxicity Sinf Average (%) (HeLa-ACE2 cells [6]): -67%; EC50 (HeLa-ACE2 cells [8]; [25]): > 9.59 µM |
| CC[C@@H]1/C=C/C=C/C[C@H](C)[C@@H](O)[C@](C)(O)C(=O)[C@H](C)[C@@H](O)[C@H](C)C(=O)[C@H](C)[C@@H](O)[C@H](C)/C=C/C(=O)O[C@H]2[C@@H](C)[C@@H](CC1)O[C@]1(O[C@H](C[C@H](C)O)[C@H](C)CC1=O)[C@@H]2C [Oligomycin B] |  | > 9590 | 50 | > 0.311 | 93 | < 5.39 | > 24.5 |  | 22000 | -100 | -89 | 100 | > 8.16 |  |
| Cn1c(C#N)ccc1-c1ccc2c(c1)C(C)(C)OC(=S)N2 [Tanaproget] | 49 | 141 | 98 | > 9.98 | 87 | 2440 |  | ≤ 3000 | 128 | -50 | -100 | 100 | > 9.59 | CC50 at 48 h (in vitro; Calu-3 uninfected cytotoxicity CC50 GeoMean): > 19.3 µM; uninfected Calu-3 CC50 (Calu-3 cells [10]): > 19.278 ×÷ 2.07 (n=3) μM |
| CCOc1ccc(Cc2nc3cc(N(C)S(=O)(=O)c4cccs4)ccc3n2CC2CCCCC2)nc1 [AZ-11713908] |  |  |  |  |  |  |  |  |  |  |  |  |  | EC50 (SARS-CoV-2 [2]; geometric mean of replicates): > 9590 nM; Emax (Calu-3 cells [3]; [19]): 100%; EC50 (Calu-3 cells [3]; [20]): > 9.73 µM; Emax (SARS-CoV-2 [4]; [21]): 93%; EC50 (SARS-CoV-2 [4]; [22]): 3530 nM; CC50 (in vitro; [23]): > 29.9 µM; CC50 at 24 h [5, 24]: > 33000 nM; HeLa-ACE2 uninfected cytotoxicity Sinf Average (%) (HeLa-ACE2 cells [6]): -100%; Calu-3 uninfected cytotoxicity Sinf Average (%) (Calu-3 cells [7]): -95%; EC50 (HeLa-ACE2 cells [8]; [25]): > 9.59 µM |
